From patent publication US11091496B2, “Opioid ketal compounds and uses thereof” (priority 2013, dated 2021)

What was measured:
[1] = format: physicochemical; conditions: mixture of isomers; 0.1 N HCl 37° C.
[2] = Hydrolysis in fresh EDTA stabilized blood plasma at 37° C.; conditions: mixture of isomers, 1.1 mg, four hour period
[3] = 5% acetic acid 100° C.
[4] = Hydrolysis in Coca Cola, pH 4 buffer or pH 7 buffer, 3 days; format: physicochemical; conditions: 1 mg/ml; for Hydrolysis to Oxycodone: after 3 days

Which “time at which about 50% of the oxycodone is released” value [1] does the source give for `COc1ccc2c3c1O[C@H]1C4(CCC5(O)[C@@H](C2)N(C)CC[C@]315)OC(C)CC(C)O4` (stereo partly drawn) [Formula IV, oxycodone 2,4-pentanediol ketal] here?
The value was “about 2.9 hours”.

And the “time by which about (almost) 90% oxycodone release occurs” value [1]?
The value was no more than 25 h.

What about the “ketal hydrolyzed to parent opioid in blood plasma” value [2] of the same compound?
The value was “approximately 6%”.

And the “time to about 80% hydrolysis to oxycodone” value ([3]; FIG. 12)?
The value was “about 2 hours”.

And the “time to almost completely hydrolyze to oxycodone” value ([3]; FIG. 12, FIG. 13)?
Its value is “about 10 hours”.

And the “degree of hydrolysis after 3 days” value ([4]; Coca Cola, pH 4 buffer, pH 7 buffer)?
The value was “very low degree of hydrolysis”.

And the “Hydrolysis to Oxycodone” value ([4]; Coca Cola, 23° C.)?
The value was 5%.

And the “Hydrolysis to Oxycodone” value ([4]; pH 4 Buffer, 37° C.)?
Its value is 4%.

And the “Hydrolysis to Oxycodone” value ([4]; pH 7 Buffer, 37° C.)?
The value was 0%.
